Assay results reported in patent US20200215029A1, “APPLICATION OF AMD3100 IN PREPARATION OF DRUG FOR TREATING AND/OR PREVENTING CACHEXIA AND PHARMACEUTICAL COMPOSITION THEREOF” (SUN YAT-SEN UNIVERSITY, priority 2017, published 2020).

Key:
[1] = system: muscle and fat-derived Nestin+ cells; experiment: Transwell migration of mouse Nestin+ cells promoted by Cxcl12; type: cell-based; details: 1 μmol/ml Cxcl12 under the Transwell chamber (8 μm pore), 24 hours, versus control without Cxcl12
Protocol: The Corning Transwell chamber (8 μm pore size) was placed on a 24-well plate, and muscle and fat-derived Nestin+ cells (see example 1) cultured in vitro were inoculated in the Transwell chamber with 2×10^4 cells/well, and cultured in a 5% CO2 and 37° C. incubator. Each well was added with 500 μl of DMEM/low sugar under the Transwell chamber. The experimental group contained 1 μmol/ml Cxcl12 factors, while Cxcl12 factors were not added in control group. After 24 hours, the chamber was taken out, the cells inside the chamber were wiped out with a cotton swab, and the chamber was washed gently and immobilized and rinsed twice with anhydrous alcohol; the chambers in various groups were marked, and erected on the abandoned well plate, and crystal violet dye solution was added into each well for incubate at room temperature for 15 min; excessive staining solution was washed away. The quantity of migrated cells in each group was measured under the inverted microscope. Five fields (400 times) were randomly selected to calculate the quantity of migrated cells in each group under the microscope with 3 repeated wells in each group. The average value of the results was calculated. It can be seen from FIG. 6 that Cxcl 12 can promote the migration of mouse Nestin+ cells.

Nestin+ cells = details: AMD3100 0.15 mg/kg body weight/day by Alzet slow-release pump, tumor-bearing mice
Protocol: 8-week-old C57 BL/6 male mice having no more than […] of weight were taken and divided into control group, cachexia group (LLC), and AMD3100 group (LLC+AMD3100).
Control group: no treatment.
Cachexia group: 4×10^6 LLC was transplanted subcutaneously into the groin of mice. After 7 days, mice were anesthetized with 100 μL of 10% chloral hydrate, and Alzet slow release pumps (model: 1004) were implanted subcutaneously on the back of mice. The normal saline was contained in the pump.
AMDd3100 group: 4×10^6 LLC was transplanted subcutaneously into the groin of mice. After 7 days, mice were anesthetized with 100 μL of 10% chloral hydrate, and an Alzet slow-release pump (model: 1004) was implanted subcutaneously on its back, and AMD3100 was contained in the pump. The use amount of mice AMD3100 was 0.15 mg/kg weight/day. After 14 days of installation of the slow-release pump, the mice were killed, and the muscle and fat tissue sections were taken for immunofluorescence staining, or RNA reverse transcription for fluorescence quantitative PCR was carried out by extracting RNA reverse transcription to detect the expression of Nestin.

Molecule | migration of mouse Nestin+ cells (quantity of migrated cells) [1] | migration of mouse Nestin+ cells (quantity of migrated cells) ([1]; listed as Cxcl12) | migration of Nestin+ cells from muscles and fats toward tumor (Nestin+ cells)
Cxcl 12: chemokine Cxcl12 factor added under the Transwell chamber; highly expressed in mouse tumor | promote | promoted | 
c1cc(CN2CCCNCCNCCCNCC2)ccc1CN1CCCNCCNCCCNCC1 [AMD3100, 1,1′-[1,4-phenylenebis(methylene)]-di-1,4,8,11-tetraazacyclotetradecane] |  |  | successfully inhibit
